Data published in patent publication EP0335545B2, “Pharmaceutical formulations for parenteral use” (UNIVERSITY OF FLORIDA, priority 1988, dated 1989).
Values after ≈ are worked out from the molar mass of the structure shown.

Assays:
[1] = Maximum concentrations of selected CDS in varying concentrations of selected cyclodextrins; assay type: physicochemical
Description: In further testing, maximum concentrations of selected CDS in varying concentrations of selected cyclodextrins were determined. The concentration of E2-CDS (mg/mL) was as follows: […]

[2] = Solid complex of E2-CDS with maltosyl-β-cyclodextrin/dimaltosyl-β-cyclodextrin mixture; assay type: physicochemical
Description: In one example of the formulation of a solid complex, an excess of a representative CDS, E2-CDS, was added to a 40% aqueous solution of a mixture of maltosyl-β-cyclodextrin (71%) and various dimaltosyl-β-cyclodextrins (29%) obtained from Ensuiko Sugar Co., Ltd., Lot No. 88190, and mixed for several hours. The suspension was then filtered and freeze-dried, and the amount of complexed drug was determined analytically by UV spectraphotometry. The amount of incorporation was determined to be 81.88 mg/g.

[3] = Aqueous solubility and stability of the E2-CDS-HPCD complex; assay type: physicochemical
Description: The E2-CDS-HPCD complex contains about 40 mg of E2-CDS/g and easily gives aqueous solutions containing 5 mg E2-CDS/mL at 20% w/v cyclodextrin. […] The halflife of E2-CDS in such a solution at room temperature in the dark is about 12.5 days (rate: 0.0554 ± 0.0047d^-1).

[4] = physchem; details: 50% w/w aqueous hpcd
Description: An excess of E2-CDS was sonicated with an aqueous solution of the appropriate solubilizing agent for 30 minutes. The suspension was then centrifuged, filtered through 0.45 µm polyvinylidene difluoride (Millex-HV4, Millipore®) membranes and analyzed by HPLC. […] An estimation of the bulk equilibrium constant was obtained by correlating the millimolarity of E2-CDS solubilized and the millimolarity of the cyclodextrin added. This latter value was calculated using the average molecular weight of the isomeric mixture determined by mass spectroscopy. The solubilizing effect of a 50% w/w solution of HPCD was also examined for a series of steroids and dihydropyridines (CDS). These studies were carried out in a similar manner to those previously described.
For the CDS, the wavelength monitored was 360 nm while for estrogen 220 nm was used.
Separation was achieved on an Analytical Sciences, Inc. (ASI) 10 µm particle size, C18 reversed phase 30 cm x 3.9 mm i.d. analytical column. The flow rate was 1 mL/min, the compounds were detected at 360 nm and in all determinations the temperature was ambient. […] For the GABA-CDS1, a mobile phase consisting of 50:1:1:48 of the same components was required. […] Other compounds were assayed spectrophotometrically.

[5] = Preparation of solid freeze-dried HPCD complexes: degree of incorporation; assay type: physicochemical
Description: An excess of E2-CDS was added and the solution then was purged with helium. The resulting suspension was then sonicated for 30 minutes, filtered through a glass filter (ASTM 10-15M, Pyrex No. 36060) and freeze-dried overnight. Best results were obtained by hard-freezing the aqueous solution of the E2-CDS/HPCD complex for at least 10 hours before lyophilization. The degree of complex formation was determined by dissolving a small amount of the dry complex in methanol and then analyzing by high pressure liquid chromatography (HPLC).
An excess of E2-CDS or other CDS was added to a 50% w/w solution of HPCD. The suspension was sonicated for 30 minutes, filtered through 0.45 µm PVDF membranes and freeze-dried. The degree of incorporation was determined either spectrophotometrically or by HPLC. In some cases, the effect of solubilizing agents on the degree of incorporation was examined. This involved adding small amounts of polyoxyethylene 20 cetyl ether (Brij), polyoxyethylene sorbitan monooleate (Tween 80) or ethanol to the aqueous solution prior to lyophilization.
The retention time was 5.2 min. Other compounds were assayed spectrophotometrically.
The solution was degassed and the suspension was sonicated for 30 minutes, after which it was filtered and the filtrate was lyophilized. The dried filtrate contained 65.6 mg testosterone propionate or 29.6 mg T-CDS1 per gram of cyclodextrin complex. Compounds were analyzed for decomposition by thin-layer chromatography and ultraviolet absorption.

In the case of `CN1C=CCC(C(=O)O[C@H]2CC[C@H]3[C@@H]4CCc5cc(O)ccc5[C@H]4CC[C@]23C)=C1` [Example E2-CDS, 3-Hydroxy-17β-[(1-methyl-1,4-dihydropyridin-3-yl)carbonyl]oxyestra-1,3,5(10)-triene], the solubility ([1]; 20% hebcd) is reported as 3090 µg/mL (≈ 7.85 mM), the solubility ([1]; 20% hpcd) is reported as 6730 µg/mL (≈ 17.1 mM) and the solubility ([1]; 40% hebcd) is reported as 6070 µg/mL (≈ 15.4 mM). It also gave a solubility ([1]; 40% hpcd) of 11900 µg/mL (≈ 30.2 mM), a solubility ([1]; 40% hpgcd) of 4000 µg/mL (≈ 10.2 mM) and an amount of incorporation ([2]; 40% aqueous maltosyl-β-cyclodextrin (71%) / dimaltosyl-β-cyclodextrins (29%), freeze-dried) of 81.88 mg/g. For the same molecule, the “amount of incorporation, comparable figure” value ([2]; HPCD) was “approximately 36.2 mg/g”, the “rate (of degradation)” value ([3]; 5 mg E2-CDS/mL at 20% w/v cyclodextrin, room temperature in the dark) was 0.0554 ± 0.0047 day⁻¹ and the half-life ([3]; 20% w/v aqueous hpcd, 5 mg E2-CDS/mL at 20% w/v cyclodextrin, room temperature in the dark) was roughly 12.5 days. For the same molecule, the “increase in aqueous solubility by complexation” value ([3]; 20% w/v cyclodextrin versus water) was 25,000 fold, the solubility [4] was 22000 µg/mL (≈ 55.9 mM) and the “stability of the solid complex” value [5] was “stable as a dry powder”. For the same molecule, the degree of complexation ([5]; 50% (w/w) HPCD, freeze-dried) was 20 to 40 mg/g, the “upper limit for a stable complex” value ([5]; HPCD complex) was “approximately 40 mg/g” and the degree of incorporation ([5]; addition of Brij (0.7% w/w)) was 189 mg/g. For the same molecule, the “degree of incorporation after storage” value ([5]; addition of Brij (0.7% w/w), in 12 days) was 42 mg/g, the “effect on degree of incorporation” value ([5]; addition of Tween 80 (0.8% w/w) or ethanol (10% v/v)) was “only modest effects” and the “Amount of Drug in Dry Complex” value ([5]; freeze-dried complex from 50% w/w HPCD (ASDS 5.1)) was 37 mg/g.
